Results reported in US8129557B2, “Phosphonic acid diester derivative and method for producing thereof” (priority 2005, dated 2012).
Marks after values point to notes of the source that are not given here.

Key:
E-coli GGT = biological target: T1, E-coli GGT (Escherichia coli, UniProt P18956); test: Second-order rate constant kon of E-coli GGT inactivation (continuous or discontinuous assay); format: biochemical, Escherichia coli K-12; conditions: for kon E-coli GGT: second-order rate constant for enzyme inactivation, pH 5.5, 25° C.
T1 construct: was used as a purified enzyme of E-coli GGT; made in house
T1 sequence (P18956 26-390 limits assumed): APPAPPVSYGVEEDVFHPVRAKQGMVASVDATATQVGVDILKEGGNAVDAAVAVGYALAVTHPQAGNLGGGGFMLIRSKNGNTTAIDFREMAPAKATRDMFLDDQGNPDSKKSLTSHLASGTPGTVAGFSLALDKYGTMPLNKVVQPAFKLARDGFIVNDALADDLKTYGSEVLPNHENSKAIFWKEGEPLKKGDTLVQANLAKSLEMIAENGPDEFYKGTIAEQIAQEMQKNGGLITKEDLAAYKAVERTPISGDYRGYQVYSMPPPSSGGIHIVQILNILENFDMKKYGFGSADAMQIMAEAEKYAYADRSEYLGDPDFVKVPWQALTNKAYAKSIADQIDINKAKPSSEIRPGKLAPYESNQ
T1 sequence (P18956 391-580 limits assumed): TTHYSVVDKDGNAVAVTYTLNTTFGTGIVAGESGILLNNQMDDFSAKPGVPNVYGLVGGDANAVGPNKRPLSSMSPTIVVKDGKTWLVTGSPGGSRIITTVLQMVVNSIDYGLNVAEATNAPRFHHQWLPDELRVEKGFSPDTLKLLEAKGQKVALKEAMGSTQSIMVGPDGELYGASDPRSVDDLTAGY
Text: (§1) Purified enzyme of E-coli GGT and crude enzyme of human GGT were employed as GGT samples for an inhibition experiment. The enzyme whose physicochemical properties are described in the Document (Hideyuki Suzuki, Hidehiko Kumagai, Tatsurokukro Tochikura “gamma-Glutamyltranspeptidase from Escherichia coli K-12: Purification and Properties” Journal of Bacteriology, December 1986, Vol. 168, No. 3, p. 1325-1331) was used as a purified enzyme of E-coli GGT. Enzyme [HC-GTP (product number), 603AA (lot number)] manufactured by Asahi Kasei Co., Ltd. was used as a crude enzyme of human GGT. The crude enzyme of human GGT contained a large amount of bovine serum albumin (BSA) to stabilize the enzyme, and the GGT concentration was 1% or lower.
In the hydrolytic assay of E. coli GGT, 10 μL of a […] enzyme solution was added to a 100 mM succinic acid-sodium hydroxide buffer solution (pH 5.5) in a total volume of 1 mL containing 100 μL of 2 μM substrate aqueous solution. The product, 7-amino-4-methylcoumarin (AMC), released along with the enzyme reaction was traced continuously at 25° C. using a fluorospectrophotometer F-2000 manufactured by Hitachi Ltd. (excitation wavelength: 350 nm, emission wavelength: 440 nm). The AMC concentration was separately measured by forming a calibration curve showing the relation of the fluorescence intensity (F) and the concentration (C) using standard solutions and was calculated from the relational expression (1) of the fluorescence intensity alteration (ΔF) and concentration alteration (ΔC).
(§2) Next, a second-order rate constant for enzyme inactivation kon was measured by either a continuous assay or a discontinuous assay. Both of the continuous and discontinuous assay for measuring inhibitory activity to GGT were carried out under a pseudo-first-order reaction condition.
(§3) In the continuous assay, while the temperature was kept at 25° C., the 100 mM succinic acid-sodium hydroxide buffer solutions (pH 5.5) containing an inhibitor in various concentrations and the substrate were preincubated for equilibrium. Herein, 0.2 μM of the substrate was used for the case of E-coli GGT and 0.4 μM of the substrate was used for the case of human GGT. Thereafter, the enzyme solution of the E-coli GGT was added in a manner that the final concentration became 0.04 nM and also the human GGT crude enzyme solution was added in a manner that the final concentration became 5 μg/mL. Accordingly, the reaction was started and the release of AMC (increase of the fluorescence intensity) was continuously traced for 10 minutes.
(§4) The fluorescence intensity data obtained from the respective curves was applied to the following pseudo-first-order rate equation (2) and the observed pseudo-first-order rate constant for enzyme inactivation (kobs) was calculated by nonlinear regression analysis [Stein, R. L. et al. Biochemistry 26, 2682-2689 (1987)].
(§5) [Equation 2] [P]=[P]∞[1−exp(−kobst)] (2)
(§6) When the kobs was plotted against to the inhibitor concentration ([I]), a linear relation was obtained until the maximum extent of the experimentally possible inhibitor concentration. Therefore, the second-order rate constant for enzyme inactivation kon was calculated using the following equation (3) deduced from the kinetic mechanism.
(§7) [drawing 37] [Equation 3] kobs=kon[I]/(1+[S]/Km) (3)
(§8) Herein, S denotes 7-(γ-L-glutamylamino)-4-methylcoumarin. The substrate concentration [S] for E-coli GGT is 0.2 μM and the Km value is 0.2 μM. […] The kinetic data was obtained by nonlinear regression analysis using Kaleida graph, a program produced by Synergy Software.
Further, in the discontinuous assay, an inhibitor in various concentrations was dissolved in 100 mM succinic acid-sodium hydroxide buffer solution (pH 5.5) and the enzyme solution was added to the resulting buffer solutions. […]

human GGT = biological target: T2, human GGT (Homo sapiens, UniProt P19440); test: Second-order rate constant kon of human GGT inactivation (continuous or discontinuous assay); format: biochemical; conditions: for kon Human GGT: second-order rate constant for enzyme inactivation, pH 5.5, 25° C.; for plot of log kon (human GGT) against pKa of aryl group, FIG. 4: position relative to the straight line
T2 construct: purchased Asahi Kasei Co., Ltd. HC-GTP (lot 603AA)
Text: as §1
In the hydrolytic assay of human GGT, the measurement was carried out in the same manner as that in the hydrolytic assay of E-coli GGT, except that the substrate concentration was changed to […] and therefore, the explanation of the common portions was omitted.
as §2, §3, §4, §5, §6, §7, §8
Further, in the discontinuous assay, an inhibitor in various concentrations was dissolved in 100 mM succinic acid-sodium hydroxide buffer solution (pH 5.5) and the enzyme solution was added to the resulting buffer solutions. Herein, in the case of E-coli GGT, the enzyme solution was added in a manner that the final concentration became 0.4 nM and also the human GGT crude enzyme solution was added in a manner that the final concentration became 0.5 mg/mL. Accordingly, the reaction of the inhibitor and each GGT was conducted at 25° C. An aliquot (10 μL) of each of the reaction solutions were sampled at every specified time to measure the remaining enzyme activity by the above-mentioned enzyme activation method. The remaining enzyme activity at every time was analyzed by nonlinear regression using the pseudo-first-order rate equation (4) of enzyme inactivation to calculate the value of kobs.
[Equation 4] αt/α0=exp(−kobst) (4) […]

[1] = Chemical stability: hydrolysis ratio after storage in water at room temperature; format: physicochemical
Procedure: Herein, the hydrolysis ratios of the reactive compounds of Examples 1 to 11 were measured after the respective compounds were stored in water at room temperature. In this connection, the compounds other than the compound of Example 10 were stored in water for 12 hours and the compound of Example 10 was stored in water for 112 hours.

[2] = stored in water at room temperature for 12 hours

T2 sequence (P19440 1-380 limits assumed): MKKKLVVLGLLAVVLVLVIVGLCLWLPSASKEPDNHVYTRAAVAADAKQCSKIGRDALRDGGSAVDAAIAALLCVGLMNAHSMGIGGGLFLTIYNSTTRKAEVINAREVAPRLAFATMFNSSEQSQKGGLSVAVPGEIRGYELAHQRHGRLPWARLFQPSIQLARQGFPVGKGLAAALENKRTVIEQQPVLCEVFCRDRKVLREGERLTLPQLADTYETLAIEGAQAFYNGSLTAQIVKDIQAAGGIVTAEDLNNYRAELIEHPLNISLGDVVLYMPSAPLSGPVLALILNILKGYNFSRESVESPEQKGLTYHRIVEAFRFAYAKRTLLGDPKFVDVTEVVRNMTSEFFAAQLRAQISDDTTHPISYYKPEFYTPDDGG
T2 sequence (P19440 381-569 limits assumed): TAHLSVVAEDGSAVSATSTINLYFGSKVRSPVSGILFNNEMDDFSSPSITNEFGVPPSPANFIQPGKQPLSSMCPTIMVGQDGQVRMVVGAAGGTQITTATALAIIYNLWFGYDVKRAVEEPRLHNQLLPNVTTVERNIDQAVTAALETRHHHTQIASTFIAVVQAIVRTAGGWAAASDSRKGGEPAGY

For `N[C@H](C(=O)O)[C@@H]1CC(Cl)=NO1` [Comparative Example 1, (aS, 5S)-acivicin, reference compound], the “kon E-coli GGT” value (E-coli GGT) was 4210 ± 10 M^−1S^−1 and the “kon Human GGT” value (human GGT) was 0.40 ± 0.02 M^−1S^−1.
In the case of `COP(=O)(CCC(N)C(=O)O)Oc1ccc(C)cc1` (stereo not shown) [Example 1, 2-amino-4-[methyl(4-methylphenyl)phosphono]butanoic Acid], the “kon E-coli GGT” value (E-coli GGT) is reported as 23 M^−1S^−1, the “kon Human GGT” value (human GGT) is reported as 0.24 M^−1S^−1 and the “Hydrolysis ratio (%)” value [1, 2] is reported as 0%.
With `COc1ccc(OP(=O)(CCC(N)C(=O)O)OC)cc1` (stereo not shown) [Example 2, 2-amino-4-[(4-methoxyphenyl)(methyl)phosphono]butanoic Acid] the “kon E-coli GGT” value (E-coli GGT) was 19.5 M^−1S^−1, the “kon Human GGT” value (human GGT) was 0.16 M^−1S^−1 and the “Hydrolysis ratio (%)” value [1, 2] was 0%.
In the case of `COP(=O)(CCC(N)C(=O)O)Oc1ccccc1` (stereo not shown) [Example 3, 2-amino-4-[methyl(phenyl)phosphono]butanoic Acid], the “kon E-coli GGT” value (E-coli GGT) is reported as 115 M^−1S^−1, the “kon Human GGT” value (human GGT) is reported as 0.40 M^−1S^−1 and the “Hydrolysis ratio (%)” value [1, 2] is reported as 0%.
In the case of `COP(=O)(CCC(N)C(=O)O)Oc1ccc(Cl)cc1` (stereo not shown) [Example 4, 2-amino-4-[(4-chlorophenyl)(methyl)phosphono]butanoic Acid], the “kon E-coli GGT” value (E-coli GGT) is reported as 607 M^−1S^−1, the “kon Human GGT” value (human GGT) is reported as 5.0 M^−1S^−1 and the “Hydrolysis ratio (%)” value [1, 2] is reported as 0%.
For `COP(=O)(CCC(N)C(=O)O)Oc1ccc(C(F)(F)F)cc1` (stereo not shown) [Example 5, 2-amino-4-[methyl(4-trifluoromethylphenyl)phosphono]butanoic acid], the “kon E-coli GGT” value (E-coli GGT) was 2800 M^−1S^−1, the “kon Human GGT” value (human GGT) was 11.5 M^−1S^−1 and the “Hydrolysis ratio (%)” value [1, 2] was 0%.
In the case of `COP(=O)(CCC(N)C(=O)O)Oc1ccc(C#N)cc1` (stereo not shown) [Example 6, 2-amino-4-[(4-cyanophenyl)(methyl)phosphono]butanoic Acid], the “kon E-coli GGT” value (E-coli GGT) is reported as 12000 M^−1S^−1, the “kon Human GGT” value (human GGT) is reported as 45.9 M^−1S^−1 and the “Hydrolysis ratio (%)” value [1, 2] is reported as 12.3%.
With `COP(=O)(CCC(N)C(=O)O)Oc1ccc2c(C)cc(=O)oc2c1` (stereo not shown) [Example 8, 2-amino-4-[methyl(4-methylumbelliferyl)phosphono]butanoic Acid] the “mode of inhibition of E-coli GGT (activity plot, FIG. 1)” value (E-coli GGT; AMC fluorescence against time) was “irreversibly inactivate”, the “kon E-coli GGT” value (E-coli GGT) was 15700 M^−1S^−1 and the “mode of inhibition of human GGT (activity plot, FIG. 2)” value (human GGT; AMC fluorescence against time) was “irreversibly inactivate”. The “plot of log kon (human GGT) against pKa of aryl group, FIG. 4” value (shortened to “plot of log kon (human GGT)”) (human GGT) was “deviate upward”, the “kon Human GGT” value (human GGT) was 2400 M^−1S^−1 and the “Hydrolysis ratio (%)” value [1, 2] was 6.0%.
In the case of `CCCCOP(=O)(CCC(N)C(=O)O)Oc1ccccc1` (stereo not shown) [Example 9, 2-amino-4-[butyl(phenyl)phosphono]butanoic Acid], the “kon E-coli GGT” value (E-coli GGT) is reported as 9.0 M^−1S^−1, the “kon Human GGT” value (human GGT) is reported as 0.023 M^−1S^−1 and the “Hydrolysis ratio (%)” value [1, 2] is reported as 0%.
In the case of `CCC(OP(=O)(CCC(N)C(=O)O)Oc1ccccc1)C(=O)NCC(=O)O` (stereo not shown) [Example 10, 2-amino-4-[1-[N-(carboxymethyl)carbamoyl]propyl(phenyl)phosphono]butanoic acid], the “kon E-coli GGT” value (E-coli GGT) is reported as 80.9 M^−1S^−1, the “plot of log kon (human GGT)” value (human GGT) is reported as “deviate upward” and the “kon Human GGT” value (human GGT) is reported as 74.5 M^−1S^−1. For the same molecule, the “Hydrolysis ratio (%)” value ([1]; stored in water at room temperature for 112 hours) was 37.5* %.
For `COP(=O)(CCC(N)C(=O)O)Oc1ccc(CC(=O)O)cc1` (stereo not shown) [Example 12, 2-amino-4-{[4-(carboxymethyl)phenyl](methyl)phosphono}butanoic Acid], the “kon E-coli GGT” value (E-coli GGT) was 200 M^−1S^−1 and the “kon Human GGT” value (human GGT) was 0.33 M^−1S^−1.
With `COP(=O)(CCC(N)C(=O)O)Oc1ccc(C(=O)O)cc1` (stereo not shown) [Example 13, 2-amino-4-[4-carboxyphenyl(methyl)phosphono]butanoic Acid] the “kon E-coli GGT” value (E-coli GGT) was 3200 M^−1S^−1 and the “kon Human GGT” value (human GGT) was 5.2 M^−1S^−1.
In the case of `COP(=O)(CCC(N)C(=O)O)Oc1cccc([N+](=O)[O-])c1` (stereo not shown) [Example 14, 2-amino-4-[methyl(3-nitrophenyl)phosphono]butanoic Acid], the “kon E-coli GGT” value (E-coli GGT) is reported as 5100 M^−1S^−1 and the “kon Human GGT” value (human GGT) is reported as 49 M^−1S^−1.
For `COP(=O)(CCC(N)C(=O)O)Oc1cccc(C(=O)O)c1` (stereo not shown) [Example 15, 2-amino-4-[3-carboxyphenyl(methyl)phosphono]butanoic Acid], the “kon E-coli GGT” value (E-coli GGT) was 450 M^−1S^−1 and the “kon Human GGT” value (human GGT) was 1.63 M^−1S^−1.
In the case of `COP(=O)(CCC(N)C(=O)O)Oc1cccc(CCC(=O)O)c1` (stereo not shown) [Example 16, 2-amino-4-{[3-(2-carboxyethyl)phenyl](methyl)phosphono}butanoic Acid], the “kon E-coli GGT” value (E-coli GGT) is reported as 71 M^−1S^−1, the “plot of log kon (human GGT)” value (human GGT) is reported as “deviate upward” and the “kon Human GGT” value (human GGT) is reported as 7.67 M^−1S^−1.
For `NC(CCP(=O)(Oc1ccccc1)Oc1ccccc1)C(=O)O` (stereo not shown) [Example 17, 2-amino-4-(diphenylphosphono)butanoic Acid], the “kon E-coli GGT” value (E-coli GGT) was 28 M^−1S^−1 and the “kon Human GGT” value (human GGT) was 0.41 M^−1S^−1.
